The values below come from patent publication US20230025537A1, “MIXTURE COMPRISING HYDROGENATED SOYBEAN OIL AND THYMOL” (DSM IP Assets B.V., priority 2019, published 2023).

In test [1] the test system is E. coli K88+. Briefly: MIC by two-fold broth dilution method. To be noted: Escherichia coli, 24 h, read-out: MIC values, Escheria coli K88^+. It is filed as cell-based. (Broth dilution looks for growth in wells or tubes with falling amounts of substance.)
Test [2] relates to Cl. perfringens. Briefly: microbe, parasite or virus in culture. The format is cell-based. The note with it: Clostridium perfringens, 24 h, read-out: MIC values, Clostrisium perfringens.
The test system of test [3] is S. choleraesuis. Briefly: MIC by two-fold broth dilution method. The format is cell-based. To be noted: Salmonella enterica, 24 h, read-out: MIC values, Salmonella choleraesius.
The test system of test [4] is E. coli K88+. It is filed as cell-based, Escherichia coli K88+. To be noted: individually.

SMILES strings stand for the structures. In brackets after ≈: the same amount, converted by molar mass. Like-named read-outs stand apart in the source and are kept apart here.

As for `C=CCc1ccc(O)c(OC)c1` [Eugenol, eugenol], the MIC is 2500 µM (≈ 411 µg/mL) in test [1], 4000 µM (≈ 657 µg/mL) in test [2] and 2500 µM (≈ 411 µg/mL) in test [3]. The “Lag phase (λ)” value in test [4] (dosage 0.25 mmol/L) was found to be 1.77; in test [4] (dosage 0.5 mmol/L) it was 1.91.

Regarding `Cc1ccc(C(C)C)c(O)c1` [Thymol, thymol], the MIC was determined as 1500 µM (≈ 225 µg/mL) in test [1], 1000 µM (≈ 150 µg/mL) in test [2] and 1000 µM (≈ 150 µg/mL) in test [3]. Also, the “Lag phase (λ)” value is on record as 1.66 in test [4] (dosage 0.25 mmol/L) and 1.65 in test [4] (dosage 0.5 mmol/L).
